Measurements taken from ChEMBL document CHEMBL4270542, “Synthesis and study of benzofuran-pyran analogs as BMP-2 targeted osteogenic agents” (Eur J Med Chem, 2018).
The source made the active and inactive calls. The calls are words filed in the database; no cut-off is given here.

Assays:
Calvarial osteoblast [1] = assay: Induction of mineralization in rat calvarial osteoblast at 1 uM supplemented with fresh medium containing compounds every 48 hrs for 21 days by alizarin red-S staining based assay; assay type: functional, cell-based
Calvarial osteoblast [2] = assay: Induction of osteoblast differentiation in rat calvarial osteoblast assessed as increase in ALP activity using PNPP as substrate measured after 48 hrs; assay type: functional, cell-based; conditions: for EC50: Rattus norvegicus, Calvarial osteoblast, 48 h
Calvarial osteoblast [3] = assay: Cytotoxicity against rat calvarial osteoblast assessed as effect on cell viability at 0.000001 to 100 uM after 48 hrs by MTT assay; assay type: cell-based
Calvarial osteoblast [4] = assay: Induction of osteoblast differentiation in rat calvarial osteoblast assessed as increase in BMP2 mRNA expression at 0.01 to 1 uM after 48 hrs by SYBR green dye based qRT-PCR analysis relative to control; assay type: functional
Rattus norvegicus [5] = assay: In vivo induction of osteogenesis in rat assessed as increase in OCN mRNA expression at 10 mg/kg, sc administered daily for 5 days by qRT-PCR analysis; assay type: functional, organism-based
Calvarial osteoblast [6] = assay: Induction of osteoblast differentiation in rat calvarial osteoblast assessed as increase in BMP2 mRNA expression at 1 to 100 pM after 48 hrs by SYBR green dye based qRT-PCR analysis relative to control; assay type: functional
Rattus norvegicus [7] = assay: In vivo induction of osteogenesis in rat assessed as increase in BMP2 mRNA expression at 10 mg/kg, sc administered daily for 5 days by qRT-PCR analysis; assay type: functional, organism-based
Rattus norvegicus [8] = assay: In vivo induction of osteogenesis in rat assessed as increase in COL1 mRNA expression at 2.5 mg/kg, sc administered daily for 5 days by qRT-PCR analysis; assay type: functional, organism-based
Calvarial osteoblast [9] = assay: Induction of osteoblast differentiation in rat calvarial osteoblast assessed as increase in COL1 mRNA expression at 1 pM after 48 hrs by SYBR green dye based qRT-PCR analysis; assay type: functional, cell-based
Calvarial osteoblast [10] = assay: Induction of mineralization in rat calvarial osteoblast at 1 pM supplemented with fresh medium containing compounds every 48 hrs for 21 days by alizarin red-S staining based assay; assay type: functional, cell-based
Rattus norvegicus [11] = assay: In vivo induction of osteogenesis in rat assessed as increase in COL1 mRNA expression at 10 mg/kg, sc administered daily for 5 days by qRT-PCR analysis; assay type: functional, organism-based
Rattus norvegicus [12] = assay: In vivo induction of osteogenesis in rat assessed as increase in BMP2 mRNA expression at 2.5 mg/kg, sc administered daily for 5 days by qRT-PCR analysis; assay type: functional, organism-based
Rattus norvegicus [13] = assay: In vivo induction of osteogenesis in rat assessed as increase in OCN mRNA expression at 5 mg/kg, sc administered daily for 5 days by qRT-PCR analysis; assay type: functional, organism-based
Calvarial osteoblast [14] = assay: Induction of osteoblast differentiation in rat calvarial osteoblast assessed as increase in Runx2 mRNA expression at 1 pM after 48 hrs by SYBR green dye based qRT-PCR analysis relative to control; assay type: functional
Calvarial osteoblast [15] = assay: Induction of mineralization in rat calvarial osteoblast at 10 nM supplemented with fresh medium containing compounds every 48 hrs for 21 days by alizarin red-S staining based assay; assay type: functional, cell-based
Calvarial osteoblast [16] = assay: Induction of osteoblast differentiation in rat calvarial osteoblast assessed as increase in BMP2 mRNA expression at 0.1 to 10 nM after 48 hrs by SYBR green dye based qRT-PCR analysis relative to control; assay type: functional

EC50 (Calvarial osteoblast [2])	Structure (SMILES)	Activity (Calvarial osteoblast [1])	concentration of maximal effect (Calvarial osteoblast [2])	Activity (Calvarial osteoblast [3])	fold change (FC) (Calvarial osteoblast [4])	Activity (Rattus norvegicus [5])	fold change (FC) (Calvarial osteoblast [6])	Activity (Rattus norvegicus [7])	Activity (Rattus norvegicus [8])	Activity (Calvarial osteoblast [9])	Activity (Calvarial osteoblast [10])	Activity (Rattus norvegicus [11])	Activity (Rattus norvegicus [12])	Activity (Rattus norvegicus [13])	fold change (FC) (Calvarial osteoblast [14])	Activity (Calvarial osteoblast [15])	fold change (FC) (Calvarial osteoblast [16])
7960 nM	CCc1cc(C2C3=C(CC(C)(C)CC3=O)OC3=C2C(=O)CC(C)(C)C3)cc2cc(C(=O)c3ccc(F)cc3)oc12	Active	10 µM	Non-Toxic	2	–	–	–	–	–	–	–	–	–	–	–	–
0.000822 nM	Cc1cc(C2C3=C(CCCC3=O)OC3=C2C(=O)CCC3)cc2cc(C(=O)c3ccc(F)cc3)oc12	–	1e-06 µM	Non-Toxic	–	Active	2.5	Active	Active	Active	Active	Active	Active	Active	2	–	–
7.59 nM	CCc1cc(C2C3=C(CCCC3=O)OC3=C2C(=O)CCC3)cc2cc(C(=O)c3ccc(F)cc3)oc12	–	0.01 µM	Non-Toxic	–	–	–	–	–	–	–	–	–	–	–	Active	2
